The results in this text go back to publication PMC5206433 (BioMed Research International, 2016).

The target in this assay is integrin αIIbβ3 (Homo sapiens, UniProt P05106+P08514). The format is binding.
integrin αIIbβ3, sequence (P08514 32-887): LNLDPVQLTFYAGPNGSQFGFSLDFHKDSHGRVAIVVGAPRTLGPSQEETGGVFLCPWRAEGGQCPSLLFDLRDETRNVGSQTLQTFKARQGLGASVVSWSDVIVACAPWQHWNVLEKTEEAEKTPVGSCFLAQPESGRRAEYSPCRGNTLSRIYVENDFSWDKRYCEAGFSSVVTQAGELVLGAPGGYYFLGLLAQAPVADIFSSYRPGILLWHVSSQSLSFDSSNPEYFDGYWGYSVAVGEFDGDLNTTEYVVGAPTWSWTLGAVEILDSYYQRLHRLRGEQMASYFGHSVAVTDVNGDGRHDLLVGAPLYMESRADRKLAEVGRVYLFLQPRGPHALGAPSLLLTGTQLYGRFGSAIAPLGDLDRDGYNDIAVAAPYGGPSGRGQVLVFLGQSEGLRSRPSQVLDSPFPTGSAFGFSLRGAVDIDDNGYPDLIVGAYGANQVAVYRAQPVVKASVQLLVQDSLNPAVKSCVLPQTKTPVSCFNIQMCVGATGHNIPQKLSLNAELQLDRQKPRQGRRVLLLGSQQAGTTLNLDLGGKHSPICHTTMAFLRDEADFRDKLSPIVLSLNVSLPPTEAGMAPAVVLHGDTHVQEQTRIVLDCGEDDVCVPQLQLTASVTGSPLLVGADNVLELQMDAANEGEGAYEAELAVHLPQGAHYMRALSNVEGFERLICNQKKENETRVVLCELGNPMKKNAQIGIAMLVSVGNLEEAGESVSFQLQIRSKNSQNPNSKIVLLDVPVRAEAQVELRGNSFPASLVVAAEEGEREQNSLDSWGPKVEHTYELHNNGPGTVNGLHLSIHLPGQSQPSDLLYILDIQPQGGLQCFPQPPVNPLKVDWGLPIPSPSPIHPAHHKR
integrin αIIbβ3, sequence (P08514 891-1039): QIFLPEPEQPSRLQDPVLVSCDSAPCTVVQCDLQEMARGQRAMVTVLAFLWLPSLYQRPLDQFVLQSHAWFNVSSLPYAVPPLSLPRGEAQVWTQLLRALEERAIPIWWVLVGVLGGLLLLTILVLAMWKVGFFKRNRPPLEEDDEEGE
integrin αIIbβ3, sequence (P05106 27-788): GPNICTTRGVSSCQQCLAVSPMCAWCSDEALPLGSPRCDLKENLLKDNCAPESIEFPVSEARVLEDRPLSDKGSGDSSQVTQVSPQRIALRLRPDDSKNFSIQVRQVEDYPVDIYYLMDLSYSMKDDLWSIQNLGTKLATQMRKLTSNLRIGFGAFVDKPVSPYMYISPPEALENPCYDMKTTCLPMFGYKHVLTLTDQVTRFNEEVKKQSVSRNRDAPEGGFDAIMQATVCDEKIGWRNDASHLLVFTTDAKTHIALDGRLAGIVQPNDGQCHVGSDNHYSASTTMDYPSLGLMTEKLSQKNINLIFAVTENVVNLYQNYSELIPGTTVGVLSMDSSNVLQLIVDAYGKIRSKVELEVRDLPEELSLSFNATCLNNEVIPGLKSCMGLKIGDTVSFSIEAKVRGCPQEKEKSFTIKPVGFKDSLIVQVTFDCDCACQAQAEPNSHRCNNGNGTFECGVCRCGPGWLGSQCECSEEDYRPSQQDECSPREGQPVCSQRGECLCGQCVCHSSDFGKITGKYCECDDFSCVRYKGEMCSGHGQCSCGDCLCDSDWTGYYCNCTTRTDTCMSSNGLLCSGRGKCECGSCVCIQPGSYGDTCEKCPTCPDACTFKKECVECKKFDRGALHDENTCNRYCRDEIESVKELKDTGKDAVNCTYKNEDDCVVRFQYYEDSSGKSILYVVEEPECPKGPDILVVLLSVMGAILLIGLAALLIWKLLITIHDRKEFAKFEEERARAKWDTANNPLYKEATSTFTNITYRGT

For orientation: IC50 means the concentration at which inhibition is half-maximal. Higher therefore signals a need for much substance. For `CCCC(=O)NC(Cc1ccc2cc(OCc3ccc(C(=N)N)cc3)ccc2c1)C(=O)O` (stereo not shown) [ND-1, 2-butyramido-3-(6-((4-carbamimidoylbenzyl)oxy)naphthalen-2-yl)propanoic acid], the midpoint of inhibition, the IC50, lay at 3.12 µM.
